Measurements as given in ChEMBL document CHEMBL1155803 (Bioorg Med Chem, 2008).

How the values were obtained:
[1] = Antagonist activity at peripheral muscarinic M3 receptor in guinea pig longitudinal ileum assessed as effect on arecaidin propargyl ester-induced contraction after 1 hr; format: functional, tissue-based, Cavia porcellus
[2] = target: T1, Muscarinic acetylcholine receptor M1 (Homo sapiens, UniProt P11229); assay: Displacement of [3H]N-methylscopolamine chloride from human cloned muscarinic M1 receptor expressed in CHOK1 cells; format: cell-based, CHO-K1
T1 sequence (P11229 whole entry): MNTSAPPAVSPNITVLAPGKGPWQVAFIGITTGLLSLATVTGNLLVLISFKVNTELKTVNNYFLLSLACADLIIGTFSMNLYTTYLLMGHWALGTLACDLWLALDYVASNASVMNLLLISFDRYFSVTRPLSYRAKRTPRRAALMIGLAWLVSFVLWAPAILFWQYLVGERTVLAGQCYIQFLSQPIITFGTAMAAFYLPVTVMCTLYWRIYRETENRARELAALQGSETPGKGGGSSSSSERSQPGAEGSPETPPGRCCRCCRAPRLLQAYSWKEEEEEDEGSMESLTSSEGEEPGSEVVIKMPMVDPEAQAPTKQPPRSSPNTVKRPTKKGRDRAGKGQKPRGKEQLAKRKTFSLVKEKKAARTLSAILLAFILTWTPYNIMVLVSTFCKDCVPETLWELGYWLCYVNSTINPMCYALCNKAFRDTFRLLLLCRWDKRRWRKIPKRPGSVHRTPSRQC

[3] = target: T2, Muscarinic acetylcholine receptor M2 (Homo sapiens, UniProt P08172); assay: Displacement of [3H]N-methylscopolamine chloride from human cloned muscarinic M2 receptor expressed in CHOK1 cells; format: cell-based, CHO-K1
T2 sequence (P08172 whole entry): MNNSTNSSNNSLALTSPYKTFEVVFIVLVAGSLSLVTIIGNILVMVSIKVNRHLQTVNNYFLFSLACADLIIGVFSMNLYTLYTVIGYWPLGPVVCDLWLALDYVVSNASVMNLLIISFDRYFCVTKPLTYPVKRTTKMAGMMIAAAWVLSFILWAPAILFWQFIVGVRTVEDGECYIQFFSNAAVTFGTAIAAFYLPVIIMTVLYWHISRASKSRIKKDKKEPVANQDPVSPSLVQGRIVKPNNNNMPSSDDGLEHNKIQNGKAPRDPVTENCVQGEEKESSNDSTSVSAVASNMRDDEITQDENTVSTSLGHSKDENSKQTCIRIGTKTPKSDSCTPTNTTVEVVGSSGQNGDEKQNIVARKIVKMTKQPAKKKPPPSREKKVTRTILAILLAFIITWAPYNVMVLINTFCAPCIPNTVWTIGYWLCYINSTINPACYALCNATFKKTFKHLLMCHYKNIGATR

[4] = target: Muscarinic acetylcholine receptor M3 (Homo sapiens, UniProt P20309); assay: Displacement of [3H]N-methylscopolamine chloride from human cloned muscarinic M3 receptor expressed in CHOK1 cells; format: cell-based, CHO-K1
[5] = target: T3, Muscarinic acetylcholine receptor M4 (Homo sapiens, UniProt P08173); assay: Displacement of [3H]N-methylscopolamine chloride from human cloned muscarinic M4 receptor expressed in CHOK1 cells; format: cell-based, CHO-K1
T3 sequence (P08173 whole entry): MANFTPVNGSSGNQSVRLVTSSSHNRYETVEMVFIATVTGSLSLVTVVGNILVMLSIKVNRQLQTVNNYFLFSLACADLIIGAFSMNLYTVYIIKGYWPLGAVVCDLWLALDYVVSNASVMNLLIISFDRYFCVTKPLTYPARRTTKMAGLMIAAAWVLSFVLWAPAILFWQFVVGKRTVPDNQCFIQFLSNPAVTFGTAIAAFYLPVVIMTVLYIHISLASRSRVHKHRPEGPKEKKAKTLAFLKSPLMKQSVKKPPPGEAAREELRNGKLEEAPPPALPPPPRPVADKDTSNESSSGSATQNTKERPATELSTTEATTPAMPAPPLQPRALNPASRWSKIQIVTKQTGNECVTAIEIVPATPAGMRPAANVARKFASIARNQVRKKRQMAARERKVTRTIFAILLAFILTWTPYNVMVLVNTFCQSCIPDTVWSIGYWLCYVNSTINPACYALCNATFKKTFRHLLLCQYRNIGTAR

[6] = Antagonist activity at peripheral muscarinic M2 receptor in guinea pig left atrium assessed as effect on arecaidin propargyl ester-induced contraction after 1 hr; format: functional, tissue-based; details: Cavia porcellus, Cardiac atrium, read-out: pA2 (converted)
[7] = Antagonist activity at peripheral muscarinic M4 receptor in rabbit vas deferens assessed as effect on McN-A-343-induced contraction after 1 hr; format: functional, tissue-based; details: Oryctolagus cuniculus, read-out: pA2 (converted)

Chain of Muscarinic acetylcholine receptor M3 (P20309 whole entry): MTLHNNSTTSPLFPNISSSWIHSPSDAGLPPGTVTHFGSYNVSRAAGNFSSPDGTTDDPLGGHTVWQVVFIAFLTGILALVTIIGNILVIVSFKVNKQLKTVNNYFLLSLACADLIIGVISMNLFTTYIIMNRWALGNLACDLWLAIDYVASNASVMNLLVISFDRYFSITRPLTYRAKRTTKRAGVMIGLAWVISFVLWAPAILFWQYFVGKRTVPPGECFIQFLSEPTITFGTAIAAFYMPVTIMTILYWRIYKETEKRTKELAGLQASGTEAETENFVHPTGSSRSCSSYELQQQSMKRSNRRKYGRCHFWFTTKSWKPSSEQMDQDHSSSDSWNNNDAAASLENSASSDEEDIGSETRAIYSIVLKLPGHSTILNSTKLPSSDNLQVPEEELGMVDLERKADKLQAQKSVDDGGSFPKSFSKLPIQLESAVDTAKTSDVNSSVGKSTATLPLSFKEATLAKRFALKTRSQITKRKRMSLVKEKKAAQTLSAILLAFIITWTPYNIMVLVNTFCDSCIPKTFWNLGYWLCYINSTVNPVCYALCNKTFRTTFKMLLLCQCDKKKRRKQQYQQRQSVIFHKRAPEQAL

SMILES	pA2 [1]	Ki [2] [nM]	Ki [3] [nM]	Ki [4] [nM]	Ki [5] [nM]	Kb [6] [nM]	Kb [7] [nM]
CN(C)[C@@H]1CCCC[C@H]1N(C)CC(=O)N1c2ccccc2C(=O)Nc2cccnc21.O=C(O)C(=O)O.O=C(O)C(=O)O	7.76						
CN(C)[C@H]1CCCC[C@@H]1N(C)CC(=O)N1c2ccccc2C(=O)Nc2cccnc21.O=C(O)C(=O)O.O=C(O)C(=O)O	7.58						
CN(C)[C@@H]1CCCC[C@@H]1N(C)CC(=O)N1c2ccccc2C(=O)Nc2cccnc21.O=C(O)C(=O)O.O=C(O)C(=O)O	7.57						
CN(C)[C@H]1CCCC[C@H]1N(C)CC(=O)N1c2ccccc2C(=O)Nc2cccnc21.O=C(O)C(=O)O.O=C(O)C(=O)O	7.64						
CN1CCN(CC(=O)N2c3ccccc3C(=O)Nc3cccnc32)[C@@H]2CCCC[C@H]21 (relative stereo)	6.47	2290	1000	> 10000	6610	87.1	79.4
CN1CCN(CC(=O)N2c3ccccc3C(=O)Nc3cccnc32)[C@@H]2CCCC[C@@H]21 (relative stereo)	6.01	1450	646	> 10000	2450	741	60.3
CN1CCN(CC(=O)N2c3ccccc3C(=O)Nc3cccnc32)CC1 [PIRENZEPINE]	6.88					339	8.91
CN(CCCCCCCCN(C)CCCCCCN(CC(=O)N1c2ccccc2C(=O)Nc2cccnc21)CC(=O)N1c2ccccc2C(=O)Nc2cccnc21)CCCCCCNCC(=O)N1c2ccccc2C(=O)Nc2cccnc21 [TRIPITRAMINE]	6.55	3.55		148	11.5		11.2
